Laboratory results: PubChem BioAssay AID256 (DTP/NCI, 2004)
Values joined by “and” are separate entries in the source; they are usually repeats but may differ in a detail not shown here. Equal entries are not always repeated. Inconclusive results and toxic doses are left out.

Test system: CD2F1 mice, L1210 leukemia ip, survival T/C
Assay: NCI In Vivo Anticancer Drug Screen. Data for tumor model L1210 Leukemia (intraperitoneal) in CD2F1 (CDF1) mice
Settings: higher = longer survival
Summary of the method: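 Read-out first: treated-group measurement over vehicle-control measurement, expressed as a ratio. Animals bore a transplanted tumor line and were dosed with compound or vehicle.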

[1] = endpoint: mean survival time, dose: 25.0 mg/kg/injection, schedule: Q01DX009 (ip), vehicle: saline
[2] = endpoint: mean survival time, dose: 100.0 mg/kg/injection, schedule: Q04DX003 (ip), vehicle: saline
[3] = endpoint: mean survival time, dose: 12.5 mg/kg/injection, schedule: Q01DX009 (ip), vehicle: saline sonified
[4] = endpoint: mean survival time, dose: 25.0 mg/kg/injection, schedule: Q01DX009 (ip), vehicle: saline sonified
[5] = endpoint: mean survival time, dose: 100.0 mg/kg/injection, schedule: Q01DX001 (ip), vehicle: saline
[6] = endpoint: mean survival time, dose: 200.0 mg/kg/injection, schedule: Q01DX001 (ip), vehicle: saline
[7] = endpoint: mean survival time, dose: 400.0 mg/kg/injection, schedule: Q01DX001 (ip), vehicle: saline
[8] = endpoint: mean survival time, dose: 100.0 mg/kg/injection, schedule: Q01DX009 (ip), vehicle: saline with Tween-80
[9] = endpoint: mean survival time, dose: 100.0 mg/kg/injection, schedule: Q04DX003 (ip), vehicle: saline with Tween-80
[10] = endpoint: mean survival time, dose: 200.0 mg/kg/injection, schedule: Q01DX009 (ip), vehicle: saline with Tween-80
[11] = endpoint: mean survival time, dose: 200.0 mg/kg/injection, schedule: Q04DX003 (ip), vehicle: saline with Tween-80
[12] = endpoint: mean survival time, dose: 400.0 mg/kg/injection, schedule: Q01DX009 (ip), vehicle: saline with Tween-80
[13] = endpoint: mean survival time, dose: 400.0 mg/kg/injection, schedule: Q04DX003 (ip), vehicle: saline with Tween-80
[14] = endpoint: mean survival time, dose: 100.0 mg/kg/injection, schedule: Q01DX001 (ip), vehicle: saline with Tween-80
[15] = endpoint: mean survival time, dose: 200.0 mg/kg/injection, schedule: Q01DX001 (ip), vehicle: saline with Tween-80
[16] = endpoint: mean survival time, dose: 400.0 mg/kg/injection, schedule: Q01DX001 (ip), vehicle: saline with Tween-80
[17] = endpoint: mean survival time, dose: 25.0 mg/kg/injection, schedule: Q04DX003 (ip), vehicle: saline with Tween-80

For `CCN(CC)CCOC(=O)C(c1ccccc1)C(C)(O)CC` (stereo not drawn), the T/C [1] was 101 % of control, the T/C (endpoint: mean survival time, dose: 50.0 mg/kg/injection, schedule: Q01DX009 (ip), vehicle: saline) was 87 % of control and the T/C (endpoint: mean survival time, dose: 100.0 mg/kg/injection, schedule: Q01DX009 (ip), vehicle: saline) was 104 % of control. For the same compound, the T/C [2] was 88 % of control.
`COc1ccc(OC)c(C2N(C)CCCN2C)c1` was tested, and the T/C (endpoint: mean survival time, dose: 6.25 mg/kg/injection, schedule: Q01DX009 (ip), vehicle: saline sonified) was 90 % of control, the T/C (endpoint: mean survival time, dose: 6.25 mg/kg/injection, schedule: Q04DX003 (ip), vehicle: saline sonified) was 100 % of control and the T/C [3] was 88 % of control. The T/C (endpoint: mean survival time, dose: 12.5 mg/kg/injection, schedule: Q04DX003 (ip), vehicle: saline sonified) was 101 % of control, the T/C [4] was 103 % of control and the T/C (endpoint: mean survival time, dose: 25.0 mg/kg/injection, schedule: Q04DX003 (ip), vehicle: saline sonified) was 100 % of control.
`O=C(CCc1ccc(O)cc1)c1c(O)cc(O)cc1OC1OC(CO)C(O)C(O)C1O` (stereo not drawn) was tested, and the T/C [5] was 102 % of control, the T/C [6] was 98 % of control and the T/C [7] was 104 % of control.
In the case of `C[n+]1ccc(Cc2ccccc2)cc1`, the T/C (endpoint: mean survival time, dose: 12.5 mg/kg/injection, schedule: Q04DX002 (ip), vehicle: saline) is reported as 104 % of control, the T/C (endpoint: mean survival time, dose: 25.0 mg/kg/injection, schedule: Q04DX002 (ip), vehicle: saline) is reported as 96 % of control and the T/C (endpoint: mean survival time, dose: 50.0 mg/kg/injection, schedule: Q04DX002 (ip), vehicle: saline) is reported as 102 % of control.
With `CC[C@@]1(O)C(=O)OCc2c1cc1n(c2=O)Cc2cc3ccccc3nc2-1` the T/C (endpoint: mean survival time, dose: 0.78 mg/kg/injection, schedule: Q04DX003 (ip), vehicle: water) was 120 % of control, the T/C (endpoint: mean survival time, dose: 1.56 mg/kg/injection, schedule: Q04DX003 (ip), vehicle: water) was 156 % of control and the T/C (endpoint: mean survival time, dose: 3.13 mg/kg/injection, schedule: Q04DX003 (ip), vehicle: other) was 159 % of control. For the same compound, the T/C (endpoint: mean survival time, dose: 3.13 mg/kg/injection, schedule: Q04DX003 (ip), vehicle: water) was 156 % of control, the T/C (endpoint: mean survival time, dose: 6.25 mg/kg/injection, schedule: Q04DX003 (ip), vehicle: other) was 124 % of control and the T/C (endpoint: mean survival time, dose: 12.5 mg/kg/injection, schedule: Q04DX003 (ip), vehicle: water) was 95 % of control. The T/C (endpoint: mean survival time, dose: 25.0 mg/kg/injection, schedule: Q04DX003 (ip), vehicle: other) was 119 % of control.
With `CC1C2CCC(C2)C1OC(=O)c1ccccc1C(=O)O` (stereo not drawn) (tested in a mixture with another compound) the T/C (endpoint: mean survival time, dose: 50.0 mg/kg/injection, schedule: Q01DX009 (ip), vehicle: saline with Tween-80) was 107 % of control, the T/C [8] was 102 % of control and 93 % of control and the T/C [9] was 95 % of control. For the same compound, the T/C [10] was 95 % of control, the T/C [11] was 95 % of control and the T/C [12] was 94 % of control.
For `CC(SC(=S)N(C)C)C(=O)O` (stereo not drawn), the T/C [9] was 96 % of control, the T/C [11] was 101 % of control and the T/C [13] was 101 % of control.
In the case of `C=COCCSCC`, the T/C (endpoint: mean survival time, dose: 50.0 mg/kg/injection, schedule: Q04DX003 (ip), vehicle: saline) is reported as 98 % of control, the T/C [5] is reported as 98 % of control and the T/C [2] is reported as 98 % of control. For the same compound, the T/C [6] was 97 % of control, the T/C (endpoint: mean survival time, dose: 200.0 mg/kg/injection, schedule: Q04DX003 (ip), vehicle: saline) was 104 % of control and the T/C [7] was 101 % of control.
For `Nc1cc(=O)c2[nH]cnc2[nH]1`, the T/C (endpoint: mean survival time, dose: 100.0 mg/kg/injection, schedule: Q01DX001 (ip), vehicle: carboxymethylcellulose (CMC)) was 95 % of control, the T/C (endpoint: mean survival time, dose: 200.0 mg/kg/injection, schedule: Q01DX001 (ip), vehicle: carboxymethylcellulose (CMC)) was 104 % of control and the T/C (endpoint: mean survival time, dose: 400.0 mg/kg/injection, schedule: Q01DX001 (ip), vehicle: carboxymethylcellulose (CMC)) was 101 % of control.
With `CCCC(=O)c1ccc(C)cc1` the T/C [9] was 97 % of control and the T/C [13] was 88 % of control.
For `O=C(CC(Br)C(=O)c1ccccc1)c1ccccc1` (stereo not drawn), the T/C (endpoint: mean survival time, dose: 100.0 mg/kg/injection, schedule: Q04DX003 (ip), vehicle: saline sonified) was 92 % of control, the T/C (endpoint: mean survival time, dose: 200.0 mg/kg/injection, schedule: Q04DX003 (ip), vehicle: saline sonified) was 94 % of control and the T/C (endpoint: mean survival time, dose: 400.0 mg/kg/injection, schedule: Q04DX003 (ip), vehicle: saline sonified) was 97 % of control.
For `COC(=O)c1c(F)c(F)c(Nc2c(F)c(F)c(C(=O)OC)c(F)c2F)c(F)c1F`, the T/C [9] was 95 % of control, the T/C [11] was 95 % of control and the T/C [13] was 91 % of control.
`Cc1ccc(S(=O)(=O)OCCc2ccccc2)cc1` was tested, and the T/C [14] was 97 % of control, the T/C [15] was 97 % of control and the T/C [16] was 94 % of control.
With `O=C(O)CC1C=CCC1` (stereo not drawn) the T/C (endpoint: mean survival time, dose: 6.25 mg/kg/injection, schedule: Q04DX003 (ip), vehicle: saline) was 102 % of control, the T/C (endpoint: mean survival time, dose: 12.5 mg/kg/injection, schedule: Q04DX003 (ip), vehicle: saline) was 97 % of control and the T/C (endpoint: mean survival time, dose: 25.0 mg/kg/injection, schedule: Q04DX003 (ip), vehicle: saline) was 97 % of control. The T/C [9] was 98 % of control.
For `C/C(=N/O)c1ccc2c(c1)C(C)c1ccccc1-2` (stereo not drawn), the T/C [5] was 112 % of control, the T/C [6] was 110 % of control and the T/C [7] was 104 % of control.
For `CO/C(=N\C(=O)NC1CC(OC(=O)c2ccc(C)cc2)C(COC(=O)c2ccc(C)cc2)O1)NC(=O)c1ccc(C)cc1` (stereo not drawn), the T/C [9] was 90 % of control.
With `NNc1n[nH]c(=S)n1N` the T/C (endpoint: mean survival time, dose: 6.25 mg/kg/injection, schedule: Q01DX009 (ip), vehicle: saline with Tween-80) was 103 % of control, the T/C (endpoint: mean survival time, dose: 12.5 mg/kg/injection, schedule: Q01DX009 (ip), vehicle: saline with Tween-80) was 102 % of control and the T/C (endpoint: mean survival time, dose: 25.0 mg/kg/injection, schedule: Q01DX009 (ip), vehicle: saline with Tween-80) was 104 % of control and 107 % of control.
`CN1NC(c2ccc(Cl)cc2)C2CN(C3CCCCC3)C(=O)C21O` (stereo not drawn) was tested, and the T/C [14] was 100 % of control, the T/C [8] was 96 % of control and the T/C [15] was 96 % of control. For the same compound, the T/C [10] was 90 % of control, the T/C [16] was 94 % of control and the T/C [12] was 88 % of control.
With `S=c1nccc[nH]1` the T/C (endpoint: mean survival time, dose: 100.0 mg/kg/injection, schedule: Q04DX002 (ip), vehicle: saline with Tween-80) was 105 % of control.
`OCc1ccc(O)cc1` was tested, and the T/C (endpoint: mean survival time, dose: 100.0 mg/kg/injection, schedule: Q04DX003 (ip), vehicle: other) was 100 % of control, the T/C (endpoint: mean survival time, dose: 200.0 mg/kg/injection, schedule: Q04DX003 (ip), vehicle: other) was 95 % of control and the T/C (endpoint: mean survival time, dose: 400.0 mg/kg/injection, schedule: Q04DX003 (ip), vehicle: other) was 94 % of control.
For `O=[N+]([O-])c1ccc(N(CCO)CCO)c2c1no[n+]2[O-]`, the T/C (endpoint: median survival time, dose: 12.5 mg/kg/injection, schedule: Q01DX009 (ip), vehicle: saline with Tween-80) was 114 % of control, the T/C (endpoint: median survival time, dose: 25.0 mg/kg/injection, schedule: Q01DX009 (ip), vehicle: saline with Tween-80) was 111 % of control and the T/C (endpoint: median survival time, dose: 50.0 mg/kg/injection, schedule: Q01DX009 (ip), vehicle: saline with Tween-80) was 114 % of control.
For `CCCCCCCCC/C(C)=N\NC(=O)c1ccccc1`, the T/C (endpoint: mean survival time, dose: 100.0 mg/kg/injection, schedule: Q01DX009 (ip), vehicle: saline sonified) was 100 % of control and the T/C (endpoint: mean survival time, dose: 400.0 mg/kg/injection, schedule: Q01DX009 (ip), vehicle: saline sonified) was 108 % of control.
`CCNc1ncnc2c1c(C(N)=S)cn2C1OC(CO)C(O)C1O` (stereo not drawn) was tested, and the T/C (endpoint: mean survival time, dose: 6.25 mg/kg/injection, schedule: Q01DX009 (ip), vehicle: saline) was 116 % of control, the T/C (endpoint: mean survival time, dose: 12.5 mg/kg/injection, schedule: Q01DX009 (ip), vehicle: saline) was 116 % of control and the T/C [1] was 150 % of control.
With `CC([NH-])CC(C)[NH-].[Cl][Pt+2][Cl]` (stereo not drawn) the T/C (endpoint: mean survival time, dose: 3.12 mg/kg/injection, schedule: Q04DX003 (ip), vehicle: saline with Tween-80) was 122 % of control, the T/C (endpoint: mean survival time, dose: 6.25 mg/kg/injection, schedule: Q04DX003 (ip), vehicle: saline with Tween-80) was 162 % of control and 168 % of control and the T/C [17] was 92 % of control.
In the case of `COc1cc(NC(C)CCCN)c2ncccc2c1` (stereo not drawn), the T/C [3] is reported as 102 % of control, the T/C (endpoint: mean survival time, dose: 12.5 mg/kg/injection, schedule: Q04DX003 (ip), vehicle: saline with Tween-80) is reported as 104 % of control and the T/C [4] is reported as 97 % of control. For the same compound, the T/C [17] was 93 % of control, the T/C (endpoint: mean survival time, dose: 50.0 mg/kg/injection, schedule: Q01DX009 (ip), vehicle: saline sonified) was 102 % of control and the T/C (endpoint: mean survival time, dose: 50.0 mg/kg/injection, schedule: Q04DX003 (ip), vehicle: saline with Tween-80) was 101 % of control.
For `Nc1nc(N)c(CCCOc2ccc([N+](=O)[O-])cc2Cl)c(N)n1`, the T/C (endpoint: mean survival time, dose: 100.0 mg/kg/injection, schedule: Q04DX002 (ip), vehicle: Klucel (hydroxypropylcellulose) (HPC)) was 90 % of control, the T/C (endpoint: mean survival time, dose: 200.0 mg/kg/injection, schedule: Q04DX002 (ip), vehicle: Klucel (hydroxypropylcellulose) (HPC)) was 94 % of control and the T/C (endpoint: mean survival time, dose: 400.0 mg/kg/injection, schedule: Q04DX002 (ip), vehicle: Klucel (hydroxypropylcellulose) (HPC)) was 90 % of control.
